Assay results published in patent US20100256385A1, “PROSTAGLANDIN E RECEPTOR ANTAGONISTS” (ALLERGAN, INC., priority 2009, published 2010).

Key:
human osteoclasts = test: Calcium Response in human osteoclasts; assay type: cell-based; conditions: for Calcium Response: agonist alone (FIG. 1, FIG. 2)

melting point	Structure (SMILES)	Block of the Calcium Response initiated by PGE2 (human osteoclasts; response initiated by PGE2 (FIG. 3))	Calcium Response (human osteoclasts)
165 to 166 °C	O=C(CCc1ccc(F)cc1C[C@@H]1[C@H](c2nc(C(=O)NCCCCC3CCCCC3)co2)[C@H]2CC[C@H]1O2)NC(CO)CO [Example 1, N-(1,3-Dihydroxyprop-2-yl)-3-(2-{(1R,2R,3S,4R)-3-[4-(4-cyclohexyl-butylcarbamoyl)-oxazol-2-yl]-7-oxa-bicyclo[2.2.1]hept-2-ylmethyl}-4-fluoro-phenyl)-propionamide]	blocked	
	CCCCC[C@H](O)/C=C/[C@H]1[C@H](O)CC(=O)[C@@H]1C/C=C\CCCC(=O)OCC(O)CO (stereo partly shown) [PG-2 Glycerol Ester]		induces a Calcium Response
	CCCCC[C@H](O)/C=C/[C@H]1[C@H](O)CC(=O)[C@@H]1C/C=C\CCCC(=O)O [PG-2]		does not cause a Calcium Response
